What is called EC50 is the concentration at which the effect is half-maximal. For orientation: half-life means the time needed for the level to fall by half in the phase considered. Read a high half-life as slow decline.

SMILES strings stand for the structures. Numbered stars: 1 amine (or outer) side, 2 acyl side, 3 side chain; on linkers, the order of the positions; unused ones are H or OH. Bridge positions count the residues as written; N and C are the ends. Square brackets hold non-standard residues; d marks the D form. Side chains are listed from the residue outwards. Peptide text beside a SMILES is read from it. * marks the point of attachment. C20 diacid = O=C(O)CCCCCCCCCCCCCCCCCCC(=O)*; C18 diacid = O=C(O)CCCCCCCCCCCCCCCCC(=O)*; γGlu = O=C(O)[C@H](CCC(=O)[*:2])N[*:1]; Aib = CC(C)(N)C(=O)O

This is an account of results in patent publication US20240067693A1, “POLYPEPTIDES AND USES THEREOF” (MEDIMMUNE LIMITED, priority 2020, published 2024).

Data set [1] relates to lean rats. Description: Rat acute food intake study. The class given is in vivo. The settings on record: lean male Sprague Dawley rats, 20 nmol/kg subcutaneously. As to the method: Male Sprague Dawley rats were obtained from Taconic Denmark, ApS at approximately 7 weeks of age. Rats were implanted with a microchip for identification, housed 4/cage with enrichment, free access to food and water, and allowed one week acclimatisation while non-invasive characterization was performed. Rats were on a 12:12 light:dark cycle that switches at 1pm:1am. Food intake was monitored via the HM2 system (Lafayette Instrument) that allows for monitoring in a home cage. As each rat enters an access tunnel to feed, an IR beam is broken, and the implanted microchip is read. Resulting changes to food weight is then assigned to the specific animal. Social order has shown no impact to overall feeding patterns and amounts.
Rats were sorted into groups based on Day -1 body weight and 24-hour accumulated food intake (n=7 per group). On Day 0 rats were weighed, then fasted for 6 hours. Thirty (30) minutes prior to the reintroduction of food, rats were dosed subcutaneously (5 mL/kg) with 20 nmol/kg of test compound or 60 nmol/kg peptide 1 (pramlintide) diluted in an appropriate vehicle, after which food was returned, and lights went out. Automated food intake was monitored for the following 3 days, and rats were weighed once per day.
Food intake per rat was batched into 1-hour intervals and integrated into Gubra's GubraView data management system. Discrete food intake data was exported into MS Excel from which cumulative food intake data was generated. Cumulative food intake data was then transposed into GraphPad Prism (v8.0.1) for analysis of dark period feeding

Data set [2] concerns the target T1, human amylin receptor (calcitonin receptor co-expressed with receptor activity modifying protein, RAMP3) (hAMYR3) (Homo sapiens, UniProt O60896+P30988).
T1 construct: expressed in transfected cells
T1 sequence (P30988 25-474): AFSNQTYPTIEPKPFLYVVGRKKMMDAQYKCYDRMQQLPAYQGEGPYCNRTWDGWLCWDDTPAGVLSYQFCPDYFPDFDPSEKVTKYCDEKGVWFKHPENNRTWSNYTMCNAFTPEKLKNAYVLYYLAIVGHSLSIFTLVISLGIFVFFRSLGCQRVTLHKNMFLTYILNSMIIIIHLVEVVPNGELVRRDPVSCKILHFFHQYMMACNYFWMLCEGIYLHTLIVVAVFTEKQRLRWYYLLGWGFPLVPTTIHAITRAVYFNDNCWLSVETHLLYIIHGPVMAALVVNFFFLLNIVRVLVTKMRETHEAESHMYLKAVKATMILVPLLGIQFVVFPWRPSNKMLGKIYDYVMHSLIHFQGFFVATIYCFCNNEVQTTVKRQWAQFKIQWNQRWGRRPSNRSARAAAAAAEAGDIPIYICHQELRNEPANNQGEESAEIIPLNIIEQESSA
T1 sequence (O60896 24-148 partner): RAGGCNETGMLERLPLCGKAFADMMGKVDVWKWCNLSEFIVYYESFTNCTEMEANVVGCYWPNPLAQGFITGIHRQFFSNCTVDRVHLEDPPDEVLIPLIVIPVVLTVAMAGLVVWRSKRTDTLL
Briefly: cAMP production in 1321N1 cells with stable recombinant expression of human amylin receptor (hAMYR3). In kind it is cell-based. The settings on record: for Ratio (selectivity hAMYR vs hCTR, ratio of EC50 values at the two receptors): EC50 hCTR / EC50 hAMYR3; for EC50: cAMP, 1321N1 cells, assay buffer with 0.1% BSA, read-out: EC50 (pM) hAMYR3. In a few lines: (§1)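 EC50 values come from 4-parameter logistic fits of HTRF cAMP signal, normalised to maximal calcitonin or amylin effect. Peptides were tested in duplicate for 30 min at RT in IBMX-containing (0.5 mM) BSA/HEPES buffer pH 7.4 on stable 1321N1 (human CTR, AMYR3) or HEK (rat CTR, AMYR3) lines.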
A general note: cAMP levels reflect the balance of adenylyl cyclase and phosphodiesterase activity.

In data set [3] the target is T2, human calcitonin receptor (hCTR) (Homo sapiens, UniProt P30988).
T2 construct: expressed in transfected cells
T2 sequence (P30988 25-474): T1 sequence (P30988 25-474)
Description: cAMP production in 1321N1 cells with stable recombinant expression of human calcitonin receptor (hCTR). The class given is cell-based. The settings on record: cAMP, 1321N1 cells, assay buffer with 0.1% BSA; read-out: EC50 (pM) hCTR. In a few lines: as §1

Data set [4] has as its target T3, rat amylin receptor (calcitonin receptor co-expressed with receptor activity modifying protein, RAMP3) (Rat AMYR3) (Rattus norvegicus, UniProt P32214+Q9JJ73).
T3 construct: expressed in transfected cells
T3 sequence (P32214 25-516): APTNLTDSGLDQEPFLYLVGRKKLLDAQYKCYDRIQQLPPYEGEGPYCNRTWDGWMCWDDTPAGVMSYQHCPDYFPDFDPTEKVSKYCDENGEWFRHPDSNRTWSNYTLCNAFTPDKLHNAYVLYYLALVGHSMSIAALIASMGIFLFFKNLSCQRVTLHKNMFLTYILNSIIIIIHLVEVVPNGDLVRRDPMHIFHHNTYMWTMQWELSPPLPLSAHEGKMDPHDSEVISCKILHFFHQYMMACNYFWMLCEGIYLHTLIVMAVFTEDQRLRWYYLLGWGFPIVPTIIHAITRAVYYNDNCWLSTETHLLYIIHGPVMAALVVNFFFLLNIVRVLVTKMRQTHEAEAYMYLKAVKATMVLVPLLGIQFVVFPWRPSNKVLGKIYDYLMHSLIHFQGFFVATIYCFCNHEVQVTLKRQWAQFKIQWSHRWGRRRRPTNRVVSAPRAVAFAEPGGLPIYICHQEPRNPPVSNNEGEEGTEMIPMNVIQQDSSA
T3 sequence (Q9JJ73 23-147 partner): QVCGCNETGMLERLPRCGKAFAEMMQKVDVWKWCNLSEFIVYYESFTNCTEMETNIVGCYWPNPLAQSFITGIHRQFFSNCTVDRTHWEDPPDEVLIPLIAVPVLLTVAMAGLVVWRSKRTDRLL
Description: cAMP production in HEK cells with stable recombinant expression of rat amylin receptor (Rat AMYR3). The note with it: assay buffer with 0.1% BSA. In kind it is cell-based. As to the method:
(§2) The functional activities of lipidated pramlintide analogue peptides, such as cAMP production, were tested in 1321N1 cell line with stable recombinant expression of human calcitonin receptor (hCTR) or human amylin receptor (calcitonin receptor co-expressed with receptor activity modifying protein, RAMP3) (hAMYR3) or HEK cells with stable recombinant expression of rat calcitonin receptor (rat CTR) or rat amylin receptor (calcitonin receptor co-expressed with receptor activity modifying protein, RAMP3) (Rat AMYR3).
(§3) Cryopreserved cell stock was thawed rapidly in a water-bath, suspended in assay buffer (0.1% BSA (Sigma # A3059) in HBSS (Sigma # H8264) with 25 mM HEPES, pH 7.4 and containing 0.5 mM IB MX (Sigma# 17018)) and spun at 240×g for 5 minutes. Cells were re-suspended in assay buffer at a batch-dependent optimized concentration (e.g. hCTR cells at 0.125×10^5 cells/mL, hAMYR3 cells at 0.125×10^5 cells/mL, rat CTR cells at 1x10^5 cells/mL, rat AMYR3 at 2×10^5 cells/mL).
(§4) The test peptide stock was prepared in DMSO and diluted in assay buffer to reach stated concentrations and transferred in duplicates into a 384-black shallow well microtitre assay plate (Corning # 3676). Cells were added to the assay plate, incubated at room temperature for 30 minutes and the cAMP level measured using cAMP dynamic 2 HTRF kit (Cisbio, Cat # 62AM4PEJ), following the two step protocol as per manufacturer's recommendations. The plates were read on an Envision (Perkin Elmer) using excitation wavelength of 320 nm and emission wavelengths of 620nm & 665 nm.
(§5) Data was transformed to % Delta F as described in the manufacturer's guidelines and analyzed as percent activation of maximal amylin or calcitonin effect by 4-parameter logistic fit to determine EC50 values. The selectivity of a peptide to hAMYR vs hCTR is defined as a ratio of EC50 values at the two receptors.

Data set [5] addresses T4, rat calcitonin receptor (rat CTR) (Rattus norvegicus, UniProt P32214).
T4 construct: expressed in transfected cells
T4 sequence (P32214 25-516): T3 sequence (P32214 25-516)
Description: cAMP production in HEK cells with stable recombinant expression of rat calcitonin receptor (rat CTR). The note with it: assay buffer with 0.1% BSA. In kind it is cell-based. As to the method: as §2, §3, §4, §5

Data set [6] can be described thus: in vivo. The note with it: male, Sprague-Dawley, rat, 20 nmol/kg.

As to `CC[C@H](C)[C@H](NC(=O)[C@@H]1CCCN1C(=O)CNC(=O)[C@H](Cc1ccccc1)NC(=O)[C@H](CC(N)=O)NC(=O)[C@H](CC(N)=O)NC(=O)[C@H](CO)NC(=O)[C@H](CO)NC(=O)[C@H](Cc1c[nH]cn1)NC(=O)[C@H](CCCNC(=N)N)NC(=O)[C@H](CC(C)C)NC(=O)[C@H](Cc1ccccc1)NC(=O)[C@H](CCC(=O)O)NC(=O)[C@H](C)NC(=O)[C@H](CC(C)C)NC(=O)[C@H](CCCNC(=N)N)NC(=O)[C@H](CCC(N)=O)NC(=O)[C@@H](NC(=O)[C@H](C)NC(=O)[C@@H]1CSSC[C@H](NC(=O)[C@@H](N)CCCCNC(=O)CC[C@H](NC(=O)CC[C@H](NC(=O)CCCCCCCCCCCCCCCCCCC(=O)O)C(=O)O)C(=O)O)C(=O)N[C@@H](CC(N)=O)C(=O)N[C@@H]([C@@H](C)O)C(=O)N[C@@H](C)C(=O)N[C@@H]([C@@H](C)O)C(=O)N1)[C@@H](C)O)C(=O)N[C@@H](CC(C)C)C(=O)N1CCC[C@H]1C(=O)N1CCC[C@H]1C(=O)N[C@H](C(=O)N[C@@H](CC(N)=O)C(=O)N[C@H](C(=O)NCC(=O)N[C@@H](CO)C(=O)N[C@@H](CC(N)=O)C(=O)N[C@H](C(=O)N[C@@H](Cc1ccc(O)cc1)C(N)=O)[C@@H](C)O)C(C)C)[C@@H](C)O` [Peptide 116] (H-K([γGlu-γGlu-C20 diacid])CNTATCATQRLAEFLRHSSNNFGPILPPTNVGSNTY-NH2; disulfide 2-7), in data set [1], the “Cummulative food intake (% vehicle treated intake) At 12 h” value worked out at 51.7 % vehicle treated intake, the “Cummulative food intake (% vehicle treated intake) At 24 h” value is 43.1 % vehicle treated intake and the “Cummulative food intake (% vehicle treated intake) At 48 h” value turned out to be 50.2 % vehicle treated intake. Moreover, in data set [2], the “Ratio (selectivity hAMYR vs hCTR, ratio of EC50 values at the two receptors)” value is 8 and the EC50 was found to be 1210 pM. Also, the EC50 in data set [3] worked out at 9560 pM. Further, the EC50 in data set [4] is 23.7 pM. Also, the EC50 in data set [5] is 9050 pM.
`CC[C@H](C)[C@H](NC(=O)[C@@H]1CCCN1C(=O)CNC(=O)[C@H](Cc1ccccc1)NC(=O)[C@H](CC(N)=O)NC(=O)C(C)(C)NC(=O)[C@H](CO)NC(=O)[C@H](CO)NC(=O)[C@H](Cc1c[nH]cn1)NC(=O)[C@@H](NC(=O)[C@H](CC(C)C)NC(=O)[C@H](Cc1ccccc1)NC(=O)[C@H](CC(N)=O)NC(=O)[C@H](C)NC(=O)[C@H](CC(C)C)NC(=O)[C@H](CCCNC(=N)N)NC(=O)[C@H](CCC(N)=O)NC(=O)[C@@H](NC(=O)[C@H](C)NC(=O)[C@@H]1CSSC[C@H](NC(=O)[C@H](CCCCN)NC(=O)[C@@H](N)CCCCNC(=O)CC[C@H](NC(=O)CCCCCCCCCCCCCCCCC(=O)O)C(=O)O)C(=O)N[C@@H](CC(N)=O)C(=O)N[C@@H]([C@@H](C)O)C(=O)N[C@@H](C)C(=O)N[C@@H]([C@@H](C)O)C(=O)N1)[C@@H](C)O)C(C)C)C(=O)N[C@@H](CC(C)C)C(=O)N1CCC[C@H]1C(=O)N1CCC[C@H]1C(=O)N[C@H](C(=O)N[C@@H](CC(N)=O)C(=O)N[C@H](C(=O)NCC(=O)N[C@@H](CO)C(=O)N[C@@H](CC(N)=O)C(=O)N[C@H](C(=O)N[C@@H](Cc1ccc(O)cc1)C(N)=O)[C@@H](C)O)C(C)C)[C@@H](C)O` [Peptide 35, K(γE-C18diacid)K[CNTATC]ATQRLANFLVHSS(Aib)NFGPILPPTNVGSNTY-amide] (H-K([γGlu-C18 diacid])KCNTATCATQRLANFLVHSS[Aib]NFGPILPPTNVGSNTY-NH2; disulfide 3-8; N-terminus assumed): the “Cummulative food intake (% vehicle treated intake) At 12 h” value in data set [1] was 49.8 % vehicle treated intake. For the same compound, the “Cummulative food intake (% vehicle treated intake) At 24 h” value in data set [1] is 44.8 % vehicle treated intake. For the same compound, the “Cummulative food intake (% vehicle treated intake) At 48 h” value in data set [1] worked out at 72 % vehicle treated intake. The half-life in data set [6] (iv) is 5.4 h; in data set [6] (sc), 8.1 h. Moreover, the “Ratio (selectivity hAMYR vs hCTR, ratio of EC50 values at the two receptors)” value in data set [2] is given as 55. For the same compound, the EC50 in data set [2] is 259 pM; in data set [3], 14200 pM; in data set [4], 5.9 pM; in data set [5], 514 pM.
